Our source for the cell viability values is patent US10952945B2, “Formulations containing an extract of Echinacea and linoleic acid derivatives” (DR. AUGUST WOLFF GMBH & CO. KG ARZNEIMITTEL, priority 2015, dated 2021).

Broadly, the cell viability is a read-out of living cells in per cent, often relative to untreated cells.

This data set concerns the target TRPV1 (Homo sapiens, UniProt Q8NER1). Put plainly: Determination of TRPV1 agonistic activity (MTT cell viability of 293 T-VR1 cells). The method, then: 2×10^4 293 T-VR1 cells (or parentale 293T cells as control) are cultivated in 96-well microtiter plates (Costar, Cambridge, Mass.) in 200 μL Dulbecco's Modified Eagle's Medium (DMEM), which also contains 10% foetal calf serum and 1% antibiotics (penicillin/streptomycin). The cells are incubated for 6 h with the test substances or the controls (capsaicin, TRPV1 agonist (1 μM); capsazepine, TRPV1 antagonist (10 μM); or capsaicin (1 μM) and capsazepine (10 μM)). Then, cell viability is determined.
The cytotoxic effect of the test substances was determined using the MTT (3-[4,5-dimethylthiazol-2-yl]-2,5-diphenyltetrazolium bromide) assay method. For this, 50 μL of a solution of MTT in DMEM (5 mg/mL) were added to each well. These were then incubated in the dark for 4 h at 37° C. The reaction was stopped, the residue was removed and 100 μL DMSO were added to each well. Incubation continued for 10 min with gentle shaking. Then the absorption at 550 nm was measured with a TECAN GENios Pro Plate Reader (Tecan Group Ltd., Switzerland). […] The determination was performed in triplicate.

Chain of TRPV1 (Q8NER1 whole entry, species assumed): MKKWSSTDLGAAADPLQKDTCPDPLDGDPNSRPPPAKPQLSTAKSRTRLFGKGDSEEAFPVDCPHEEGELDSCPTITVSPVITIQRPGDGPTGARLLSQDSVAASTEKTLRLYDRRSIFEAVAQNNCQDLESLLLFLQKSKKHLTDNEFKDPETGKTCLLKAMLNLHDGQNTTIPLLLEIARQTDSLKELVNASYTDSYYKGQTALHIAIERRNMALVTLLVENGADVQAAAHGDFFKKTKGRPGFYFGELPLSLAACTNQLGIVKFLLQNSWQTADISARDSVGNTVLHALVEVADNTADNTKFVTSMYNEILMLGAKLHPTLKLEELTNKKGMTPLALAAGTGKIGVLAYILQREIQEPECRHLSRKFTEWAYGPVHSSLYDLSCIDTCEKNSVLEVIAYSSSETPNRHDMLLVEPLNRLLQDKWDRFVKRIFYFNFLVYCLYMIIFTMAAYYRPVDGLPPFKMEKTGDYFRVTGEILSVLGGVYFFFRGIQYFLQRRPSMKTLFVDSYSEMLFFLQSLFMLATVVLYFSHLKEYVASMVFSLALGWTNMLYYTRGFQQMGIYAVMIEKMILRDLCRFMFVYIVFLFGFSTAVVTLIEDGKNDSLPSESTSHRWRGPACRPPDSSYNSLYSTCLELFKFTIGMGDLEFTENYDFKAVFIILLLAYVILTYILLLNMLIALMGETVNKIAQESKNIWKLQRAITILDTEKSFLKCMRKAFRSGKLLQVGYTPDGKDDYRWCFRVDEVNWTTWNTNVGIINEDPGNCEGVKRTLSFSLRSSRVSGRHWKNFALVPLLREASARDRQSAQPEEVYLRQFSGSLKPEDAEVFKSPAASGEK

With `COc1cc(CNC(=O)CCCC/C=C/C(C)C)ccc1O` [capsaicin], the cell viability (FIG. 1 experiment, capsaicin 1 μM, 293 T-VR1 cells, 6 h, percentage of vehicle control) is listed as 54.9% and the cell viability (FIG. 2 experiment, capsaicin positive control) is on record as 70.6%.

`Oc1cc2c(cc1O)CN(C(=S)NCCc1ccc(Cl)cc1)CCC2` [capsazepine]: the cell viability came to 101.3% (FIG. 1 experiment, capsaicin (1 μM) and capsazepine (10 μM) together); 104.4% (FIG. 2 experiment, capsaicin together with capsazepine); 106.1% (human, 6 h, 10 μM).
